Assay results reported in US20250108038A1 (priority 2023, published 2025).

Assays:
[1] = target: T1, CYP2C8 (Homo sapiens, UniProt P10632); assay: in vitro; conditions: both, pH 7.4
T1 sequence (P10632 1-490): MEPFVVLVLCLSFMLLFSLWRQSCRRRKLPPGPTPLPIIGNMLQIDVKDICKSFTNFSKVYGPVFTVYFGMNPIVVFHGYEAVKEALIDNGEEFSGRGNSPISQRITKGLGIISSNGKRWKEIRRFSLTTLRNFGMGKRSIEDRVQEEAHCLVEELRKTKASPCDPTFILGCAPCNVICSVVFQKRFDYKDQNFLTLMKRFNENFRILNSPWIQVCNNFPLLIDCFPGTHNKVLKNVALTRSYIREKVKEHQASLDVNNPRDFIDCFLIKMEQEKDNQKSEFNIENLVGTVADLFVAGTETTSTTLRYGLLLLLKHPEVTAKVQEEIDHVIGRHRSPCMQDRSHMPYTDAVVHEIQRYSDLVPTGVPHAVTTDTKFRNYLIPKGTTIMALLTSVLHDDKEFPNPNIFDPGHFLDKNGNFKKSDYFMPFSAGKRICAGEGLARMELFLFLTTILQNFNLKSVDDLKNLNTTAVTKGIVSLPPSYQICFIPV

[2] = tested on: Wistar rats; assay: Five Choice Serial Reaction Time Task, vSD version, repeated administration; format: in vivo, Wistar rat; set-up: Latency (Correct) / Latency (Incorrect): unit not given here; conditions: for Latency (Correct) / Latency (Incorrect) / Magazine Head Entries / Omissions / Reward Latency / Trials Completed: vSD, mean ± SEM
Source text: The behavioral tasks utilized were three versions of the rat Five Choice Serial Reaction Time Task (5C-SRTT), the standard version of the task (STD) with a fixed stimulus duration and a fixed intertrial interval, the variable stimulus duration (vSD) and the variable intertrial interval (vITI) version. The principal readout parameters in each task were the % Hit and the % correct choices (measures of sustained attention) and three measures of inhibitory response control (premature, perseverative, and timeout responses), although a number of additional outcome measures were obtained (see under Methods and Results below).
Twenty-four adult (approx. 10 months old) male Wistar rats (Envigo, Inc, Indianapolis, IN) were used in the study. […] Subjects were double housed in polycarbonate cages (45×30×18 cm) with corncob bedding in a vivarium of constant temperature (21-23° C.) and humidity (40-50%). […] All behavioral testing was performed during the light portion (9 a.m.-5 p.m.) of the light/dark cycle (Monday thru Friday). Animals were cared for in accordance with the Guide for the Care and Use of Laboratory Animals (U.S. National Institutes of Health) and the experimental protocols were approved by the Institutional Animal Care and Use Committee at Augusta University (Protocol #2010-0044).
The 5C-SRTT procedure (reviewed, Robbins, 2002. Psychopharmacology (Berl); 163(3-4):362-80) was conducted as we have described previously (Terry et al., 2014, Neurotoxicology and Teratology 44:18-29, 2014; Callahan et al., 2020, Neuropharmacology. August 15; 173:107994). […] Animals were trained in eight automated 5C-SRTT operant chambers (Med Associates, St. Albans, VT, USA), controlled by MedPC software (Med Associates). Briefly, each operant chamber was equipped with 5 apertures containing a photocell beam to detect nose pokes and a lamp (2.8 W) that could be illuminated randomly at varying durations. Food pellets (45 mg chow pellet, BioServ, Frenchtown, NJ, USA) were delivered automatically to a magazine, located on the opposite wall to the nose pokes, that was also equipped with a light that turned on to indicate that a pellet had been dispensed. The house-light remained on for the entire session unless an error or omission occurred. Training sessions began with the delivery of a food reward and retrieval triggered the first trial. […] Sessions ended when 40 minutes had lapsed or 100 trials had been completed.
For this study, subjects were re-trained 5 days per week until they re-established a stable performance criteria with a fixed (1.0 sec) stimulus duration and a fixed ITI (5 sec) of 70-75% accuracy, <20% omissions and completion of all 100 trials for 5 consecutive days. Upon meeting these performance criteria animals were trained for one additional week and two groups of subjects (N=12) were assembled and balanced according to their performance accuracy, specifically the % Hit evaluation, which takes into account correct responses as well as all incorrect responses including the number of omissions. […] The vSD version of the task increases the attentional load while the vITI increases impulsivity-like behavior. The following outcome measures and behavioral domains were assessed: % Hit and % correct=sustained attention; omissions=attention/motivation; premature responses=impulsivity; perseverative responses=compulsivity; timeout responses=cognitive inflexibility; magazine head entries=appetitive motivation and compulsivity-like behavior; response latencies=information processing speed and/or motivation. For the STD version of the task, the stimulus duration (SD) was fixed at 1.0 sec and the ITI was fixed at 5 sec. In the vSD version of the task the following stimulus durations were presented in a pseudorandom manner: 0.3, 0.6, and 0.9 sec. In the vITI version, 2.5, 5.0, and 10.0 sec ITIs were employed in a pseudorandom manner. […]

[3] = target: T2, CYP2B6 (Homo sapiens, UniProt P20813)
T2 sequence (P20813 1-491): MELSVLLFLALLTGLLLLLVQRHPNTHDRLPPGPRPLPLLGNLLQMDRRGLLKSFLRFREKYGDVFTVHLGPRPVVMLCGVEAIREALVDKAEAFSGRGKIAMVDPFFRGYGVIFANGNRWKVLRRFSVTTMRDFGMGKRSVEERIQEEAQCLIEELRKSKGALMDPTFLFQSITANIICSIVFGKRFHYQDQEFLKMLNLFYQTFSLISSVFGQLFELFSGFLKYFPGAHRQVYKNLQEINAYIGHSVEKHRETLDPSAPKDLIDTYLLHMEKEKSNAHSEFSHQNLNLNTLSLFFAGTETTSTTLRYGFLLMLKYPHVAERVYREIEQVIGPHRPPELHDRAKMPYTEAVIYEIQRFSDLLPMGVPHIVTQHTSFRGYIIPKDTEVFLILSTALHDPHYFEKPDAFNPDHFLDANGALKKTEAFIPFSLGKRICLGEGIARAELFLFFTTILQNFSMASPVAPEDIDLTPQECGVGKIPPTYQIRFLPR

[4] = Group 1, 0.1 mg/kg, Drug Exp period
[5] = Group 1, 0.1 mg/kg, Post-Drug Exp (vehicle washout) period
[6] = Group 2, 0.3 mg/kg, Drug Exp period
[7] = Group 2, 0.3 mg/kg, Post-Drug Exp (vehicle washout) period

OC1(c2ccc(Cl)cc2)c2ccccc2C2=NCCN21 (centres unmarked) [Compound A, 5-(4-chlorophenyl)-2,3-dihydroimidazo[1,2-b]isoindol-5-ol, reference compound]
inhibition at 10 µM [1]: 48.9%

Clc1ccc(C2(OCC3OCCO3)c3ccccc3C3=NCCN32)cc1 (centres unmarked) [Compound I-19]
% Hit ([2]; repeated 0.1 and 0.3 mg/kg IP): modest decrease in accuracy that was limited to the 0.6 sec stimulus duration
premature responses ([2]; repeated 0.1 and 0.3 mg/kg IP): reduced the number of premature responses compared to post-drug conditions
Latency (Correct) [2, 4]: 0.99
Latency (Incorrect) [2, 4]: 2.17
Magazine Head Entries [2, 4]: 168.21 ± 10.60
Omissions [2, 4]: 15.79
Reward Latency [2, 4]: 2.44
Trials Completed [2, 4]: 94.17 ± 2.75
Latency (Correct) [2, 5]: 0.86 ± 0.03
Latency (Incorrect) [2, 5]: 1.90 ± 0.09
Magazine Head Entries [2, 5]: 189.79 ± 14.47
Omissions [2, 5]: 8.12 ± 1.63
Reward Latency [2, 5]: 2.13
Trials Completed [2, 5]: 97.79 ± 2.21
Latency (Correct) [2, 6]: 0.91
Latency (Incorrect) [2, 6]: 2.21
Magazine Head Entries [2, 6]: 208.46 ± 28.88
Omissions [2, 6]: 14.08
Reward Latency [2, 6]: 2.99
Trials Completed [2, 6]: 98.29 ± 0.84
Latency (Correct) [2, 7]: 0.76
Latency (Incorrect) [2, 7]: 1.65 ± 0.08
Magazine Head Entries [2, 7]: 245.17 ± 33.79
Omissions [2, 7]: 5.79 ± 1.35
Reward Latency [2, 7]: 2.11
Trials Completed [2, 7]: 100.00
Inhibition at Highest Test Article Concentration ([3]; 2B6, Bupropion, at 50 μM): 77.2 at 50 μM %
IC50 ([3]; microsomes): 7.44 µM
